The values that follow come from US11078499B2, “Host cells and methods for producing toluene biochemically” (The Regents of the University of California, priority 2018, dated 2021).

This assay relates to PhdB. Kind of assay: Assays testing whether PhdB could decarboxylate o-, m-, or p-hydroxyphenylacetate, equimolar with phenylacetic acid-2-13C. Conditions: for PhdB activity on substrate: relative to phenylacetate, equimolar 2.5 mM. The format is biochemical, Acidobacteria strain Tolsyn. As for the experimental part: Analogous assays with o- and m-hydroxyphenylacetate similarly indicated very low (in this case, undetectable) PhdB activity for these hydroxyphenylacetate isomers, whereas labeled toluene is easily detected.
Assays for phenylacetate decarboxylase activity were performed under strictly anaerobic conditions within a glove box. Assays, which were performed in 4-mL glass vials sealed with 13-mm diameter PTFE Mininert screw-cap valves (Sigma-Aldrich), contained […] PhdA in assay buffer [50 mM TRIS (pH 7.5), 150 mM NaCl, 1 mM MgCl2, 5 mM (NH4)2SO4, 5 mM DTT)], to which 2 mM dithionite was added and incubated for ˜1 hour, followed by the addition of 2 mM SAM, 2.5 μM PhdB in assay buffer, and 2.5 mM phenylacetic acid-2-^13C in a final volume of 1 or 1.5 mL (depending on the specific experiment). Quantitative standards contained the same headspace/liquid ratios as assays and a dimensionless Henry's constant of 0.27^43 was used to calculate aqueous concentration. Negative controls were run concurrently and were identical except for the absence of SAM (FIG. 6). The vials were shaken on a tabletop orbital shaker at low speed. Gaseous headspace samples (100 μL) were taken within the glove box using a 500-μL gastight syringe (Sample-Lok series A-2; Sigma-Aldrich) and analyzed immediately by GC/MS, as described previously^8. Briefly, toluene was analyzed by static headspace, electron ionization (EI) GC/MS using a model 7890A GC (Agilent, Santa Clara, Calif.) with a DB-5 fused silica capillary column (30-m length, 0.25-mm inner diameter, 0.25-μm film thickness; Agilent) coupled to an HP 5975C series quadrupole mass spectrometer. As described elsewhere^8, the identity of [methyl-^13C]toluene was confirmed with the expected m/z 93/92 ratio of 0.6. Replicates involved separate assays rather than multiple analyses of a given assay sample. In assays testing whether PhdB could decarboxylate o-, m-, or p-hydroxyphenylacetate to o-, m-, or p-cresol, conditions were as described above except that equimolar amounts (2.5 mM) of o-, m-, or p-hydroxyphenylacetic acid (Sigma) and phenylacetic acid-2-^13C were added, and GC/MS analysis of o-, m-, or p-cresol in 1-μL liquid injections of concentrated hexane extracts were conducted as described previously^8. The identity of o-, m-, or p-cresol was assessed using retention time and the expected m/z 108/107 ratio of 1.16, 1.05, or 0.83, respectively, based on authentic standards.

Take `O=C(O)Cc1cccc(O)c1` [m-hydroxyphenylacetate, m-hydroxyphenylacetic acid]: the “PhdB activity on substrate” value is “undetectable”. The same measure, in the same setting: the same measure for `O=C(O)Cc1ccccc1O` [o-hydroxyphenylacetate, o-hydroxyphenylacetic acid]: “undetectable”.

With `O=C(O)Cc1ccc(O)cc1` [p-hydroxyphenylacetate], the “PhdB activity on substrate” value is “far lower activity”. For the same molecule, the “p-cresol level relative to that expected if PhdB activity were comparable to phenylacetate” value (equimolar phenylacetate and p-hydroxyphenylacetate (2.5 mM) with PhdA, PhdB and SAM) is recorded as “approximately 100 fold lower”.
